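Tested at 5 concentrations; 48 h exposure; 96-well plates; endpoints linearly interpolated, else capped at highest concentration. The concentration for full growth arrest is given as TGI.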
Legend:
Experiment in all cases: DTP human tumour cell line panel, 48 h
[1] = system: SR leukemia
[2] = system: NCI-H522 lung
[3] = system: MDA-MB-435
[4] = system: SF-539 CNS
[5] = system: SW-620 colon
[6] = system: HS 578T breast
[7] = system: NCI-H23 lung
[8] = system: SN12C renal
[9] = system: HOP-62 NSCLC
[10] = system: DU-145 prostate
[11] = system: SK-MEL-5 melanoma
[12] = system: LOX IMVI melanoma
[13] = system: T-47D breast
[14] = system: HCT-15 colon
[15] = system: IGROV1 ovarian
[16] = system: SK-MEL-28 melanoma
[17] = system: CCRF-CEM leukemia
[18] = system: TK-10 renal
[19] = system: MDA-N

Row | SMILES | TGI [1] [µM] | TGI [2] [µM] | TGI [3] [µM] | TGI [4] [µM] | TGI [5] [µM] | TGI [6] [µM] | TGI [7] [µM] | TGI [8] [µM] | TGI [9] [µM] | TGI [10] [µM] | TGI [11] [µM] | TGI [12] [µM] | TGI [13] [µM] | TGI [14] [µM] | TGI [15] [µM] | TGI [16] [µM] | TGI [17] [µM] | TGI [18] [µM] | TGI [19] [µM]
1 | CCN(CC)CCCNc1ccc([N+](=O)[O-])c2nc3ccc(OC)cc3c(N)c12 | 4.05 | 4.69 | 3.12 | 3.46 | 3.11 | 2.68 | 4.03 | 3.64 | > 10 | > 4.96 | > 10 | 3.37 | > 10 | 3.15 | > 5.08 | > 10 | 5.71 | > 10 | 
2 | O=C1NC(=S)NC(=O)C1=Cc1ccc(-c2ccccc2)cc1 |  |  | > 100 | > 100 | > 100 | > 100 | > 100 | > 100 | > 100 | > 100 | > 100 | > 100 | > 100 | > 100 | > 100 |  | > 100 | > 100 | > 100
3 | CC1(C)S[C@H](CN)N[C@H]1C(=O)OC(c1ccccc1)c1ccccc1 | 63.6 | 83.4 | > 100 |  | > 100 | > 100 | > 100 | > 100 | > 100 | > 100 | 31.4 | 33.8 | 74.3 | > 100 | > 100 | > 100 |  | > 100 | 
4 | [N-]=[N+]=Nc1ccc2c(c1)Sc1ccccc1N2CCCCN1CCN(Cc2ccc(C(=O)c3ccc(CSCC(N)C(=O)O)cc3)cc2)CC1 (stereo not given) |  | 33.7 | 3.16 |  | 4.79 |  | 74.2 | > 100 | 57.3 | 67.7 | 34.9 | 24.9 |  | 30.4 | 30.9 | 3.8 | > 100 | > 100 | 35.4
5 | CSC1=C(C(=O)Nc2ccc(C)cc2)C(N)=NC1=O | > 100 |  | > 100 | > 100 | > 100 | > 100 | > 100 |  |  | > 100 | > 100 | > 100 | > 100 | > 100 | > 100 | > 100 | > 100 | > 100 | 
6 | CC12C(=C(C#N)C(=N)N1c1ccc(Cl)c(Cl)c1)C=C(O)CC2SCCS(=O)(=O)O (stereo not given) | > 100 | > 100 |  | > 100 | > 100 |  | > 100 | > 100 | > 100 |  | > 100 | > 100 |  | > 100 | > 100 | > 100 | > 100 | > 100 | 
7 | CC(C)CC(NP(=O)(O)OC1OC(C)C(O)C(O)C1O)C(=O)NC(Cc1c[nH]c2ccccc12)C(=O)O (stereo not given) |  | > 100 | > 100 | > 100 | > 100 | > 100 | > 100 | > 100 | > 100 | > 100 | > 100 |  | > 100 | > 100 | > 100 | > 100 | > 100 |  | > 100
8 | C/C(=N\NC(=S)NC(CCC(=O)O)C(=O)O)c1cnccn1 (stereo not given) | > 100 | > 100 |  | > 100 | > 100 |  | > 100 | > 100 | > 100 |  | > 100 | > 100 |  | > 100 | > 100 | > 100 | > 100 | > 100 | 
9 | C[C@@H]1CCC2C(C)(C)C(/C=C\C=O)C3(C)OC213 (stereo not given in full) |  | > 100 | > 100 |  | > 100 | 75.6 | > 100 |  | > 100 | > 100 | 53.2 |  |  | > 100 | > 100 | > 100 |  | > 100 | > 100
10 | CCN(CC)c1ccc(C2Nc3ccc4ccccc4c3C3=C2C(=O)CCC3)cc1 (stereo not given) |  |  | > 100 | 28.1 | > 100 | 34.4 | > 100 | > 100 | 69.5 | 62.8 |  |  | > 100 | > 100 |  | > 100 | > 100 |  | > 100
11 | CN(C)/C=N\c1nncc2[nH]cnc12 |  | > 100 | > 100 | > 100 | > 100 |  | > 100 | > 100 | > 100 |  | > 100 | > 100 | > 100 | > 100 | > 100 | > 100 | > 100 | > 100 | > 100
12 | CCO/C(O)=C(/C(=N)N1CCCC1)C(=O)Nc1cccc(Cl)c1 |  | > 100 | > 100 | > 100 | > 100 | > 100 | > 100 | > 100 | > 100 | > 100 |  | > 100 | > 100 | > 100 | > 100 | > 100 | > 100 | > 100 | > 100
13 | O=C(N/N=C(/c1nc2ccc([N+](=O)[O-])cc2[nH]c1=O)C(O)c1ccc([N+](=O)[O-])cc1)c1ccncc1 (stereo not given) | > 100 | > 100 |  | > 100 | > 100 |  | > 100 | > 100 | > 100 |  | > 100 | > 100 |  | > 100 | > 100 | > 100 | > 100 | > 100 | 
14 | COc1cc(OC)c2c(=O)c3c([N+](=O)[O-])cccc3n(C)c2c1 | > 100 | > 100 |  | > 100 | > 100 |  | > 100 | > 100 | > 100 |  | > 100 | > 100 |  | > 100 | > 100 | > 100 | > 100 | > 100 | 
15 | CCCCCCNC(=S)N/N=C(\C)c1ccccn1 |  | 19.8 | 17.8 | 11.9 | 19.3 | > 100 | 18.8 | 14 | 14.9 | 30.4 | 14.7 | 12.3 | 23.4 | 21.9 | 18.4 | 18.5 |  | 42 | 20.6
16 | CCc1[nH]c(=O)c2oc3cc4ccccc4cc3c2c1C(=O)O | > 10 | > 10 |  | > 10 | > 10 | > 10 |  | > 10 |  | > 10 |  | > 10 |  | > 10 | > 10 |  |  | > 10 | 
17 | C#CCNC(=O)NCCCCC(NC(C)=O)C(=O)NCc1ccccc1 (stereo not given) | > 100 | > 100 |  | > 100 | > 100 |  | > 100 | > 100 | > 100 |  | > 100 | > 100 |  | > 100 | > 100 | > 100 | > 100 | > 100 | 
18 | CCOC(=O)C(/C(=N\NC(=O)OC)C(=O)Nc1cc(OC)ccc1OC)c1cnc2ccccc2n1 (stereo not given) | > 100 | > 100 |  | > 100 | > 100 |  | > 100 | > 100 | > 100 |  | > 100 | > 100 |  | > 100 | > 100 | > 100 | > 100 | > 100 | 
19 | COC(=O)n1c(C)c(C=O)c2ccc(OC)cc21 | > 100 | > 100 | 47.2 | 55.2 |  |  | 89.7 | > 100 | 60.8 | > 100 | 57.5 | 84.5 | > 100 | 82.7 | > 100 |  | > 100 | 67.6 | 
20 | COc1cc(C2C(C(=O)Nc3ccc([N+](=O)[O-])cc3)=C(C)NC(C)=C2C(=O)Nc2ccc([N+](=O)[O-])cc2)ccc1O | > 44.1 | 39.7 |  | 41.1 | 52.3 |  | > 77.1 | 36.4 | 35 |  | > 100 | 31.5 |  | 50.8 | 65.4 | 31.3 | > 100 | 68.7 | 
21 | COc1cc(C2c3cc4c(cc3OC(NCCc3ccccc3)C2C)OCO4)cc(OC)c1OC (stereo not given) |  | 0.779 | 2.18 | 1.23 | > 100 | 0.425 | > 20.9 | > 65.3 | > 70.3 | > 100 | 4.82 | 15.6 | 66.8 | > 40.9 | 27 | > 100 | > 62.3 | > 100 | 
22 | Nc1ncnc2c1ncn2-c1ccc([N+](=O)[O-])cn1 |  |  | > 100 | > 100 | > 100 | > 100 | > 100 | > 100 | > 100 | > 100 | > 100 | > 100 | > 100 | > 100 |  | > 100 | > 100 | > 100 | > 100
23 | CCCCCCSCC/C(C)=N\OC |  | > 100 | > 100 | > 100 | > 100 |  | > 100 | > 100 | > 100 | > 100 | > 100 | > 100 |  | > 100 | > 100 | > 100 | > 100 | > 100 | > 100
24 | COc1ccccc1-n1c(NN)nc2ccc(Br)cc2c1=O | > 100 | 63.2 |  | 84.5 | > 100 |  | > 100 | > 100 | > 100 |  | 43 | > 100 |  | > 100 | > 100 | > 100 | > 100 | 79.5 | 
25 | CCOC(=O)c1nc2ccc(C(F)(F)F)cc2nc1Nc1ccc(F)cc1 |  | > 100 | > 100 | > 100 | > 100 | 73.8 | > 100 | > 100 | > 100 | > 100 |  | > 100 | > 100 | > 100 | > 100 | > 100 |  | > 100 | > 100
26 | CCOC(=O)c1nc2ccccc2nc1Oc1ccc(C#N)cc1 |  |  | > 100 | > 100 | > 100 | > 100 |  | > 100 | > 100 | > 100 | > 100 | > 100 | > 100 | > 100 | > 100 | > 100 | > 100 | > 100 | > 100
27 | O=C(c1ccccc1)c1ccc2c(c1)nc1n2C(c2c(F)cccc2F)SC1 (stereo not given) |  | > 100 | > 100 | > 100 | > 100 | > 100 | > 100 | > 100 | > 100 | > 100 | 27.8 | > 100 | 43.5 | > 100 | > 100 | > 100 |  | > 100 | 55.1
28 | C[C@@H]1O[C@]2(O)[C@@H]3CCCN3S(=O)(=O)CCN2C1=O | > 100 | > 100 |  | > 100 | > 100 |  | > 100 | > 100 | > 100 |  | > 100 | > 100 |  | > 100 | > 100 | > 100 | > 100 | > 100 | 
29 | CCOC(=O)c1nc2ccccc2nc1Nc1ccc(OC)cc1 | > 100 | > 100 | > 100 | 52.1 | > 100 | > 100 | > 100 | 61.5 | 30.7 | > 100 | > 100 | > 100 | > 100 | > 100 | > 100 | > 100 | > 100 | > 100 | 

— PubChem BioAssay (NCI)
